In patent publication US12258328B2, “6-membered heteroaryl-containing aminopyridine compounds as EGFR inhibitors” (YUHAN CORPORATION, priority 2021, dated 2025):
Where two headings read alike, the source gives them in different places.

Experiments:
[1] = target: EGFR del19/T790M/C797S (Homo sapiens, UniProt P00533, C797S/DEL746-750/T790M); assay: Biochemical EGFR kinase assay (Lance Ultra TR-FRET), triple mutant del19/T790M/C797S
Procedure, shortened: (§1)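 Enzyme reactions lasted 1 hour at room temperature with test compounds between 0.003 and 10 μM, followed by 10 mM EDTA quench.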

[2] = target: EGFR L858R/T790M/C797S (Homo sapiens, UniProt P00533, C797S/L858R/T790M); assay: Biochemical EGFR kinase assay (Lance Ultra TR-FRET), triple mutant L858R/T790M/C797S
Sequence of EGFR L858R/T790M/C797S (P00533 25-1210 T790M/C797S/L858R): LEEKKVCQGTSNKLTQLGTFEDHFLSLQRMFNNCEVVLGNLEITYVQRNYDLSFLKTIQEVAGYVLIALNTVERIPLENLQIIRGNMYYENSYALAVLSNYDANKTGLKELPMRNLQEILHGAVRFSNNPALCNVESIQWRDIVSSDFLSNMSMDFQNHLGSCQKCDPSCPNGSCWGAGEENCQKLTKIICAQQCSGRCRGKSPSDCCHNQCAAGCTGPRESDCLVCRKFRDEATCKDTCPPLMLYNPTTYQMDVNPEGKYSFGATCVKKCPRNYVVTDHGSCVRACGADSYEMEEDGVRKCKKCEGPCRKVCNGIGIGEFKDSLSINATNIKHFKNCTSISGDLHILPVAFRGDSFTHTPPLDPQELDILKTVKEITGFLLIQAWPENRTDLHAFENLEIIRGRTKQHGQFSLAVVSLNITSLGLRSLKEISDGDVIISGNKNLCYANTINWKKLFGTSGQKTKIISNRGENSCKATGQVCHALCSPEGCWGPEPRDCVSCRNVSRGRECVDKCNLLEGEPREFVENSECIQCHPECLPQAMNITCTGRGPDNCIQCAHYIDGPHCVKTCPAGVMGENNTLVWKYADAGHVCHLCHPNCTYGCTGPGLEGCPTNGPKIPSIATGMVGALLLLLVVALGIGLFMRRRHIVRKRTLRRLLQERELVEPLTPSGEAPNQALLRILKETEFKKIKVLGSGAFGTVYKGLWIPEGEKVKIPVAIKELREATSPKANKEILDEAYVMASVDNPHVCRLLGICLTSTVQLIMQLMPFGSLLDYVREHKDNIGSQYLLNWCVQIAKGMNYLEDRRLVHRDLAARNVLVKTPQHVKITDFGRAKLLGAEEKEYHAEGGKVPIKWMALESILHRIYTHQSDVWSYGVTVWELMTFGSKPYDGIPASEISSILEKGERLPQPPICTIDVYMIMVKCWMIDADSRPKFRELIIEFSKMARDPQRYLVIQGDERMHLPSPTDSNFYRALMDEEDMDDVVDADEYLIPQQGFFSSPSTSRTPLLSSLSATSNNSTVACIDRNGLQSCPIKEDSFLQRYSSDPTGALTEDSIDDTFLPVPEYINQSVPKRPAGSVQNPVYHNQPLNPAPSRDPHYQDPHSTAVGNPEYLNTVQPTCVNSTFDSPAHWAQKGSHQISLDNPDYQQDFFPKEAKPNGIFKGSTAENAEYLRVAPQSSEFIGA
Procedure, shortened: as §1

[3] = target: EGFR del19/C797S (Homo sapiens, UniProt P00533, C797S/DEL746-750); assay: Biochemical EGFR kinase assay (Lance Ultra TR-FRET), double mutant del19/C797S
Sequence of EGFR del19/C797S (P00533 with tags, fused parts or gaps DEL746-750/C797S): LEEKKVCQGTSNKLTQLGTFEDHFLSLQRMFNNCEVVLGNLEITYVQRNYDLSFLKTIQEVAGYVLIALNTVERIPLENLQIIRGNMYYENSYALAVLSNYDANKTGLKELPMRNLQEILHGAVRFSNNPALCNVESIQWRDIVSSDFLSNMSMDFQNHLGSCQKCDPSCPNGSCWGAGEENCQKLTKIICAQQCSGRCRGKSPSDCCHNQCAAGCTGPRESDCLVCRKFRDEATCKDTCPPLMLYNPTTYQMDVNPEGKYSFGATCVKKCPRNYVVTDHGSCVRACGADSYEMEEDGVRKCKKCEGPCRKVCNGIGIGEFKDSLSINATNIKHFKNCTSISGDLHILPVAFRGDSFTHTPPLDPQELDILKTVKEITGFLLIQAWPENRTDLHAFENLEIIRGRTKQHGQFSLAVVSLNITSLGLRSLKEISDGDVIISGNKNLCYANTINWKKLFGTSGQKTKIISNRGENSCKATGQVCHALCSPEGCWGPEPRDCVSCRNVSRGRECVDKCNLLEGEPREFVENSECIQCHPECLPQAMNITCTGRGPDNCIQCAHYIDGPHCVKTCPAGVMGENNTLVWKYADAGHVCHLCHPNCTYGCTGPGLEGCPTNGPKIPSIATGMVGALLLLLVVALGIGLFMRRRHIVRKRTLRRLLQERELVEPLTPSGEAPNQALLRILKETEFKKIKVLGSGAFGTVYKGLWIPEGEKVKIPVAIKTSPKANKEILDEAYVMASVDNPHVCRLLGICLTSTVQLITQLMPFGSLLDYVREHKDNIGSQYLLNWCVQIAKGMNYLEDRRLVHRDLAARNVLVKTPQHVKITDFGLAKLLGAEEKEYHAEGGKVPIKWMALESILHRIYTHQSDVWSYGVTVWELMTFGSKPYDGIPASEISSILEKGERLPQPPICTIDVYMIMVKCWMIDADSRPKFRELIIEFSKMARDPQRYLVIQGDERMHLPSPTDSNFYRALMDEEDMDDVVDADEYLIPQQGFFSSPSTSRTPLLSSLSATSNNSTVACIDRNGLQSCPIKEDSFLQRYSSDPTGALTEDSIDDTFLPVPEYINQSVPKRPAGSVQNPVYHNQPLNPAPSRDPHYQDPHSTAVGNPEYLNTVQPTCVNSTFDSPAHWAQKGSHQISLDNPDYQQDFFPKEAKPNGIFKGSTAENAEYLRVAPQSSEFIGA
Procedure, shortened: as §1

[4] = target: EGFR L858R/C797S (Homo sapiens, UniProt P00533, C797S/L858R); assay: Biochemical EGFR kinase assay (Lance Ultra TR-FRET), double mutant L858R/C797S
Sequence of EGFR L858R/C797S (P00533 25-1210 C797S/L858R): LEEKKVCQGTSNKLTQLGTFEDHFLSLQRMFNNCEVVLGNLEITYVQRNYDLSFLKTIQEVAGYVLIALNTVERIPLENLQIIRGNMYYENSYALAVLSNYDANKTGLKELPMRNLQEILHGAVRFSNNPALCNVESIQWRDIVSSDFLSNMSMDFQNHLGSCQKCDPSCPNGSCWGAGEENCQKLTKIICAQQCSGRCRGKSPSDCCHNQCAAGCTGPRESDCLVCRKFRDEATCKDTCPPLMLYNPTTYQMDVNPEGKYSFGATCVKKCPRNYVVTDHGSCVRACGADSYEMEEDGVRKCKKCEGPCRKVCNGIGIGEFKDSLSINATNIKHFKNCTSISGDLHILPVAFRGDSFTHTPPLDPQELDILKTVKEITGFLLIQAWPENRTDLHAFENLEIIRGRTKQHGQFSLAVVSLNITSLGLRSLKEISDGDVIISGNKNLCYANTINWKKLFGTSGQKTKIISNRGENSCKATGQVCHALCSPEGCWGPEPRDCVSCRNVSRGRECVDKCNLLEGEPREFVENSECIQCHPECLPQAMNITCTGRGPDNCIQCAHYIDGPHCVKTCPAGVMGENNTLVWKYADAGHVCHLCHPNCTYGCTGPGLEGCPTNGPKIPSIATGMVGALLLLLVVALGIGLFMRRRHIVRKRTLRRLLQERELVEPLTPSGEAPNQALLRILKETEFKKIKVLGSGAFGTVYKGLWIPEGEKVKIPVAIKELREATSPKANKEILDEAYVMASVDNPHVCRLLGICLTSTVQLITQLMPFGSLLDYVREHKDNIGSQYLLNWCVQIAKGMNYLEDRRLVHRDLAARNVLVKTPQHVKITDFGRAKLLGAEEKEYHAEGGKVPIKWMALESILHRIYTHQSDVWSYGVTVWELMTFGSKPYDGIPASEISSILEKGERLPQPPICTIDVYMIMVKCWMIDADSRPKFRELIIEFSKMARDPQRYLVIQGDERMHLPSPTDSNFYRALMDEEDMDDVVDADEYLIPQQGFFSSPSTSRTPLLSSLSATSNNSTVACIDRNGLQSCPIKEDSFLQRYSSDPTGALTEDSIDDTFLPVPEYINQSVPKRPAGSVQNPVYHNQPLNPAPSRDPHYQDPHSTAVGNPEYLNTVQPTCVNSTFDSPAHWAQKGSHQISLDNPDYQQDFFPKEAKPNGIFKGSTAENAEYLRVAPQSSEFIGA
Procedure, shortened: as §1

[5] = target: EGFR wildtype (Homo sapiens, UniProt P00533); assay: Biochemical EGFR kinase assay (Lance Ultra TR-FRET), wildtype
Sequence of EGFR wildtype (P00533 25-1210): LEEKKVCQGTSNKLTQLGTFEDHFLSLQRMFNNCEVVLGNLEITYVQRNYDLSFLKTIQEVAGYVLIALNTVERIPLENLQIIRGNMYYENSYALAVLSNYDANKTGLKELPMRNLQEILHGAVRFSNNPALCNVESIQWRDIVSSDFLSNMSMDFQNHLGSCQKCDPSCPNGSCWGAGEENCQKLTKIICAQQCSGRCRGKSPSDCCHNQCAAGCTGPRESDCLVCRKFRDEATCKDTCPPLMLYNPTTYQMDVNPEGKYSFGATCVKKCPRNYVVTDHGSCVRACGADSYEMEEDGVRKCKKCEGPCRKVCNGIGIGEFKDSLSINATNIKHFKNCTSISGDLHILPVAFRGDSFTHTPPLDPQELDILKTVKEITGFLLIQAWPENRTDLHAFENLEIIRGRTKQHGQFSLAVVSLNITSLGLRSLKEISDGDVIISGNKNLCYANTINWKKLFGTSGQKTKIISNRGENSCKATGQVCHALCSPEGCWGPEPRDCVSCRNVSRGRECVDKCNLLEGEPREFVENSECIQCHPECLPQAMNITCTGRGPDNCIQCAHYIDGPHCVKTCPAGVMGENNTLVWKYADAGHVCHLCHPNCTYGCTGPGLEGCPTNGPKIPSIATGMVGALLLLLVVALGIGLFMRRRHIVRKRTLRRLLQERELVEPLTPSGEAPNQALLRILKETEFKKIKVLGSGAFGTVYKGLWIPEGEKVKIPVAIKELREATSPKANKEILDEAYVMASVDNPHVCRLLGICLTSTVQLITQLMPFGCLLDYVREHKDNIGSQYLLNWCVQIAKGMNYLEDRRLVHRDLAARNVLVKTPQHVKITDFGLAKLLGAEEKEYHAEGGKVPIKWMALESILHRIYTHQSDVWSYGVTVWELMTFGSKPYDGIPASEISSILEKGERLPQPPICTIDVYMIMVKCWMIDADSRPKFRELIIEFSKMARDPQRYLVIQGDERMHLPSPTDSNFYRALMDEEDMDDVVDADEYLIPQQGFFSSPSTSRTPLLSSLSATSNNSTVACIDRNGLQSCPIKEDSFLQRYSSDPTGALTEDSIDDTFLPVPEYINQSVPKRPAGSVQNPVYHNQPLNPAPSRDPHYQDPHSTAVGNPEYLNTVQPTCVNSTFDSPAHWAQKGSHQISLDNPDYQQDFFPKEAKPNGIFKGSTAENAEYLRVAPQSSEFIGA
Procedure, shortened: as §1

[6] = Km ATP, read-out: IC50 del19/T790M/C797S (nM) Km ATP
[7] = Km ATP, read-out: IC50 L858R/T790M/C797S (nM) Km ATP
[8] = Km ATP, read-out: IC50 del19/C797S (nM) Km ATP
[9] = Km ATP, read-out: IC50 L858R/C797S (nM) Km ATP
[10] = Km ATP, read-out: IC50 WT (nM) Km ATP
[11] = ATP at Km, read-out: IC50 del19/T790M/C797S, Km ATP
[12] = IC50 del19/T790M/C797S, 100 μM ATP
[13] = ATP at Km, read-out: IC50 L858R/T790M/C797S, Km ATP
[14] = IC50 L858R/T790M/C797S, 100 μM ATP
[15] = ATP at Km, read-out: IC50 del19/C797S, Km ATP
[16] = ATP at Km, read-out: IC50 L858R/C797S, Km ATP
[17] = ATP at Km, read-out: IC50 WT, Km ATP
[18] = IC50 del19/T790M/C797S (nM) 100 μM ATP, 100 μM ATP
[19] = IC50 L858R/T790M/C797S (nM) 100 μM ATP, 100 μM ATP
[20] = IC50 del19/C797S (nM) 100 μM ATP, 100 μM ATP
[21] = IC50 L858R/C797S (nM) 100 μM ATP, 100 μM ATP
[22] = IC50 WT (nM) 100 μM ATP, 100 μM ATP

Row | IC50 [1, 6] [nM] | IC50 [2, 7] [nM] | IC50 [3, 8] [nM] | IC50 [4, 9] [nM] | IC50 [5, 10] [nM] | IC50 [1, 11] [nM] | IC50 [1, 12] [nM] | IC50 [2, 13] [nM] | IC50 [2, 14] [nM] | IC50 [3, 15] [nM] | IC50 ([3]; IC50 del19/C797S, 100 μM ATP) [nM] | IC50 [4, 16] [nM] | IC50 ([4]; IC50 L858R/C797S, 100 μM ATP) [nM] | IC50 [5, 17] [nM] | IC50 ([5]; IC50 WT, 100 μM ATP) [nM] | IC50 [1, 18] [nM] | IC50 [2, 19] [nM] | IC50 [3, 20] [nM] | IC50 [4, 21] [nM] | IC50 [5, 22] [nM] | Compound
1 | 0.3 | 0.3 | 19.4 | 5 | 208 | – | – | – | – | – | – | – | – | – | – | – | – | – | – | – | CN1CCC(Oc2ccc(-c3cnc(Nc4ccnc(-c5cnn(CC(F)F)c5)n4)cc3NC3CC(F)(F)C3)nc2)CC1 [Example 139, N^4′-(3,3-Difluorocyclobutyl)-N^6′-(2-(1-(2,2-difluoroethyl)-1H-pyrazol-4-yl)pyrimidin-4-yl)-5-((1-methylpiperidin-4-yl)oxy)-[2,3′-bipyridine]-4′,6′-diamine]
2 | – | – | – | – | – | 0.3 | 0.4 | 0.1 | 0.4 | 0.5 | 0.6 | 0.5 | 1.8 | 2.2 | 1040 | – | – | – | – | – | CC(C)(O)[C@H]1CC[C@@H](Nc2cc(Nc3ccnc(-c4cnn(S(=O)(=O)C5CC5)c4)n3)ncc2-c2ccc(C(=O)N3CCOCC3)cn2)CC1 [Example 201, (6′-((2-(1-(Cyclopropylsulfonyl)-1H-pyrazol-4-yl)pyrimidin-4-yl)amino)-4′-(((1s,4s)-4-(2-hydroxypropan-2-yl)cyclohexyl)amino)-[2,3′-bipyridin]-5-yl)(morpholino)methanone]
3 | – | – | – | – | – | – | – | – | – | – | – | – | – | – | – | 0.7 | 3.1 | 8.7 | 113 | > 10000 | CC(=O)c1cccc(-c2cnc(Nc3ccnc(-c4cnn(S(=O)(=O)C5CC5)c4)n3)cc2N[C@H]2CC[C@@](C)(O)CC2)n1 [Example 18, 1-(6′-((2-(1-(Cyclopropylsulfonyl)-1H-pyrazol-4-yl)pyrimidin-4-yl)amino)-4′-(((1s,4s)-4-hydroxy-4-methylcyclohexyl)amino)-[2,3′-bipyridin]-6-yl)ethan-1-one]
4 | – | – | 2 | 0.7 | 4.8 | – | – | – | – | – | – | – | – | – | – | 1.7 | 1 | 1.7 | 4.5 | 636 | O=S(=O)(C1CC1)n1cc(-c2nccc(Nc3cc(NC4CCC(CO)CC4)c(-c4ccc(N5CCOCC5)cn4)cn3)n2)cn1 (stereo not shown) [Example 57, ((1s,4s)-4-((6′-((2-(1-(Cyclopropylsulfonyl)-1H-pyrazol-4-yl)pyrimidin-4-yl)amino)-5-morpholino-[2,3′-bipyridin]-4′-yl)amino)cyclohexyl)methanol]
5 | 2.1 | – | 3 | 0.6 | 5.3 | – | – | – | – | – | – | – | – | – | – | 3.2 | 1.2 | 3.9 | 5.4 | 787 | CC(C)(O)c1cc(-c2cnc(Nc3ccnc(-c4cnn(S(=O)(=O)C5CC5)c4)n3)cc2N[C@H]2CC[C@@H](CO)CC2)ncc1F [Example 105, 2-(6′-((2-(1-(Cyclopropylsulfonyl)-1H-pyrazol-4-yl)pyrimidin-4-yl)amino)-5-fluoro-4′-(((1s,4s)-4-(hydroxymethyl)cyclohexyl)amino)-[2,3′-bipyridin]-4-yl)propan-2-ol]
6 | – | – | – | – | – | 5.8 | 8.5 | 2.5 | 9.1 | 6 | 30.7 | 12 | 67.7 | 47.5 | > 10000 | – | – | – | – | – | Cc1ccc(-c2cnc(Nc3ccnc(-c4cnn(S(=O)(=O)C5CC5)c4)n3)cc2N[C@H]2CC[C@@H](C(C)(C)O)CC2)nc1F [Example 180, 2-((1s,4s)-4-((6′-((2-(1-(Cyclopropylsulfonyl)-1H-pyrazol-4-yl)pyrimidin-4-yl)amino)-6-fluoro-5-methyl-[2,3′-bipyridin]-4′-yl)amino)cyclohexyl)propan-2-ol]
7 | 0.1 | 0.03 | 0.3 | 0.4 | – | – | – | – | – | – | – | – | – | – | – | 0.1 | 0.1 | 0.2 | 2.3 | 1360 | C[C@]1(O)CC[C@@H](Nc2cc(Nc3ccnc(-c4cnn(S(=O)(=O)C5CC5)c4)n3)ncc2-c2cccnn2)CC1 [Example 42, (1s,4s)-4-((2-((2-(1-(Cyclopropylsulfonyl)-1H-pyrazol-4-yl)pyrimidin-4-yl)amino)-5-(pyridazin-3-yl)pyridin-4-yl)amino)-1-methylcyclohexan-1-ol]
8 | – | – | – | – | – | 0.2 | 0.3 | 0.1 | 0.1 | 0.1 | 0.2 | 0.03 | 0.3 | 0.2 | 94.2 | – | – | – | – | – | CN1CCN(C(=O)c2ccc(-c3cnc(Nc4ccnc(-c5cnn(S(=O)(=O)C6CC6)c5)n4)cc3N[C@H]3CC[C@@H](CO)CC3)nc2)CC1 [Example 202, (6′-((2-(1-(Cyclopropylsulfonyl)-1H-pyrazol-4-yl)pyrimidin-4-yl)amino)-4′-(((1s,4s)-4-(hydroxymethyl)cyclohexyl)amino)-[2,3′-bipyridin]-5-yl)(4-methylpiperazin-1-yl)methanone]
9 | – | – | – | – | – | 0.5 | 1.3 | 0.4 | 3 | 13.1 | 21 | 19.9 | 1530 | 2970 | > 10000 | – | – | – | – | – | O=S(=O)(C1CC1)n1cc(-c2nccc(Nc3cc(NC4CCC(F)(CO)CC4)c(-c4cccc(F)n4)cn3)n2)cn1 (stereo not shown) [Example 162, (4-((6′-((2-(1-(Cyclopropylsulfonyl)-1H-pyrazol-4-yl)pyrimidin-4-yl)amino)-6-fluoro-[2,3′-bipyridin]-4′-yl)amino)-1-fluorocyclohexyl)methanol]
10 | 0.3 | 0.2 | 4.5 | 4 | 43.6 | – | – | – | – | – | – | – | – | – | – | 0.8 | 0.9 | 5.1 | 523 | > 10000 | CN(C)c1ccnc(-c2cnc(Nc3ccnc(-c4cnn(S(=O)(=O)C5CC5)c4)n3)cc2N[C@H]2CC[C@@](C)(O)CC2)n1 [Example 41, (1s,4s)-4-((2-((2-(1-(Cyclopropylsulfonyl)-1H-pyrazol-4-yl)pyrimidin-4-yl)amino)-5-(4-(dimethylamino)pyrimidin-2-yl)pyridin-4-yl)amino)-1-methylcyclohexan-1-ol]
11 | 2.1 | 1.1 | 2.2 | 4.1 | 4 | – | – | – | – | – | – | – | – | – | – | 1.7 | 1.4 | 2.3 | 13 | 1560 | O=S(=O)(C1CC1)n1cc(-c2nccc(Nc3cc(N[C@H]4CC[C@@H](CO)CC4)c(-c4cc(C(F)F)ccn4)cn3)n2)cn1 [Example 77, ((1s,4s)-4-((6′-((2-(1-(Cyclopropylsulfonyl)-1H-pyrazol-4-yl)pyrimidin-4-yl)amino)-4-(difluoromethyl)-[2,3′-bipyridin]-4′-yl)amino)cyclohexyl)methanol]
12 | 345 | 43.9 | 3820 | 1670 | 235 | – | – | – | – | – | – | – | – | – | – | – | – | – | – | – | COc1c(F)ccnc1-c1cnc(Nc2ccnc(-c3cnn(CC(F)F)c3)n2)cc1N[C@H]1CC[C@@](C)(O)CC1 [Example 336, (1s,4s)-4-((6′-((2-(1-(2,2-Difluoroethyl)-1H-pyrazol-4-yl)pyrimidin-4-yl)amino)-4-fluoro-3-methoxy-[2,3′-bipyridin]-4′-yl)amino)-1-methylcyclohexan-1-ol]
13 | – | – | – | – | – | 0.1 | 0.2 | 0.1 | 0.2 | 0.2 | 0.3 | 0.1 | 0.6 | 0.3 | 243 | – | – | – | – | – | CN(C)CCOc1ccc(-c2cnc(Nc3ccnc(-c4cnn(S(=O)(=O)C5CC5)c4)n3)cc2N[C@H]2CC[C@@](C)(O)CC2)nc1 [Example 208, (1s,4s)-4-((6′-((2-(1-(Cyclopropylsulfonyl)-1H-pyrazol-4-yl)pyrimidin-4-yl)amino)-5-(2-(dimethylamino)ethoxy)-[2,3′-bipyridin]-4′-yl)amino)-1-methylcyclohexan-1-ol]
14 | 0.1 | 0.1 | 0.4 | 0.6 | 2 | – | – | – | – | – | – | – | – | – | – | 2.5 | 2.7 | 0.5 | 1.6 | 1560 | C[C@]1(O)CC[C@@H](Nc2cc(Nc3ccnc(-c4cnn(S(=O)(=O)C5CC5)c4)n3)ncc2-c2ccc(N3CCOCC3)nn2)CC1 [Example 43, (1s,4s)-4-((2-((2-(1-(Cyclopropylsulfonyl)-1H-pyrazol-4-yl)pyrimidin-4-yl)amino)-5-(6-morpholinopyridazin-3-yl)pyridin-4-yl)amino)-1-methylcyclohexan-1-ol]
